Experimental data published in the SangsterLogP compilation.

Experiment: method code SF-AS, from DOI: 10.1016/0378-5173(79)90126-1
Conditions: pH 3.5

Compound	logD
C=CCC(CC=C)(C(=O)NC(N)=O)C(=O)OC	1.37
CCC(CC)(C(=O)NC(N)=O)C(=O)OC(C)C	1.99
CCNC(=O)NC(=O)C(C)(C(=O)OC)C1=CCCCC1 (stereo not given)	2.25
CNC(=O)NC(=O)C(C)(C(=O)OC)C1C=CCCC1 (stereo not given)	1.75
CCC(CC)(C(=O)NC(N)=O)C(=O)OCC(=O)OC	0.99
CCC(CC)(C(=O)NC(N)=O)C(=O)OC	0.95
CCC(C(=O)NC(N)=O)(C(=O)OC)c1ccccc1 (stereo not given)	1.58
CCOC(=O)C(CC)(CC)C(=O)NC(N)=O	1.45
CCC(CC)(C(=O)NC(N)=O)C(=O)OCc1ccccc1	2.74
CNC(=O)NC(=O)C(C)(C(=O)OCOC)C1=CCCCC1 (stereo not given)	1.8
